According to ChEMBL document CHEMBL5365534, “Discovery of a Novel Ketohexokinase Inhibitor with Improved Drug Distribution in Target Tissue for the Treatment of Fructose Metabolic Disease” (J Med Chem, 2023):

What was measured:
[1] = Drug metabolism in monkey hepatocytes assessed as oxidation/hydrogenation/decarboxylation metabolite at 10 uM measured upto 240 mins by LC-MS/MS analysis; assay type: ADME, cell-based, Macaca mulatta, Hepatocyte; details: rhesus monkey, 4 h
[2] = MRT (0 to t) in Beagle dog at 5 mg/kg, po administered as single dose measured upto 24 hrs by LC-MS/MS analysis; assay type: ADME, organism-based, Canis lupus familiaris; details: in vivo
in vitro [3] = details: rat, plasma
[4] = Metabolic stability in monkey hepatocyte assessed as parent compound remaining at 10 uM measured after 4 hrs by LC-MS/MS analysis; assay type: ADME, cell-based, Macaca mulatta; details: rhesus monkey, hepatocytes, read-out: Stability
[5] = MRT (0 to t) in Sprague-Dawley rat at 10 mg/kg, iv administered as single dose measured upto 24 hrs by LC-MS/MS analysis; assay type: ADME, organism-based; details: in vivo
in vitro [6] = details: mouse, liver microsomes
Cytochrome P450 1A2 = target: T1, Cytochrome P450 1A2 (Homo sapiens, UniProt P05177)
T1 sequence (P05177 whole entry): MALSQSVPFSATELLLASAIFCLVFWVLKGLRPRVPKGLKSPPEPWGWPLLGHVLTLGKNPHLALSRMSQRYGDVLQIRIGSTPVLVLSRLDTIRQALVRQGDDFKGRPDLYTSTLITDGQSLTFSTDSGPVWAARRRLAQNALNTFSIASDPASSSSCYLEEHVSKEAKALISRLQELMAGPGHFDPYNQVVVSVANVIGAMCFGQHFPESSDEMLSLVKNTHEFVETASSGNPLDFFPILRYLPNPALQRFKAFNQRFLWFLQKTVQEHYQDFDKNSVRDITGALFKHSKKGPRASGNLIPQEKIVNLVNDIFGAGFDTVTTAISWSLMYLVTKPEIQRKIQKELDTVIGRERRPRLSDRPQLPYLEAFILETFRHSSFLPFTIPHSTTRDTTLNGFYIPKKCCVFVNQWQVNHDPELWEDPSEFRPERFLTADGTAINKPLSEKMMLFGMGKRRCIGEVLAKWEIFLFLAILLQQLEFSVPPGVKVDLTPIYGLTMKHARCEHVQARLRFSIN

Cytochrome P450 2C9 [7] = target: T2, Cytochrome P450 2C9 (Homo sapiens, UniProt P11712)
[8] = AUC (0 to infinity) in Sprague-Dawley rat at 10 mg/kg, po administered as single dose measured upto 24 hrs by LC-MS/MS analysis; assay type: ADME, organism-based; design: dose 10 mg/kg, time < 24 hrs, route po; details: in vivo
physchem [9] = assay: physchem
in vivo [10] = details: Sprague-Dawley, rat, lung, po, 10 mg/kg
[11] = Drug metabolism in dog hepatocytes assessed as glucuronidation metabolite at 10 uM measured upto 240 mins by LC-MS/MS analysis; assay type: ADME, cell-based, Canis lupus familiaris, Hepatocyte; details: 4 h
in vitro [12] = details: human, HepG2 cells
in vitro [13] = details: rhesus monkey, hepatocytes
in vivo [14] = details: Sprague-Dawley, rat, plasma, po, 10 mg/kg
[15] = Drug metabolism in mouse hepatocytes assessed as glucuronidation metabolite at 10 uM measured upto 240 mins by LC-MS/MS analysis; assay type: ADME, cell-based, Hepatocyte; details: 4 h
[16] = Elimination half life in Sprague-Dawley rat at 10 mg/kg, po administered as single dose measured upto 24 hrs by LC-MS/MS analysis; assay type: ADME, organism-based; details: in vivo, read-out: beta t1/2 (converted)
Cytochrome P450 2C9 [17] = target: T2, Cytochrome P450 2C9; assay: Time dependent inhibition of CYP2C9 in human liver microsomes at 10 uM preincubated for 30 mins followed by substrate addition and measured after 15 mins in presence of NADPH by LC-MS/MS analysis; assay type: ADME, Microsome
physchem [18] = details: buffer, pH 7.4
[19] = Oral bioavailability in Sprague-Dawley rat at 10 mg/kg administered as single dose measured upto 24 hrs by LC-MS/MS analysis; assay type: ADME, organism-based; details: in vivo
[20] = Clearance in Beagle dog at 1 mg/kg, iv administered as single dose measured upto 24 hrs by LC-MS/MS analysis; assay type: ADME, organism-based, Canis lupus familiaris; details: in vivo
[21] = AUC (0 to t) in Beagle dog at 1 mg/kg, iv administered as single dose measured upto 24 hrs by LC-MS/MS analysis; assay type: ADME, organism-based, Canis lupus familiaris; design: dose 1 mg/kg, time < 24 hrs, route iv; details: in vivo
[22] = AUC (0 to t) in Sprague-Dawley rat at 10 mg/kg, iv administered as single dose measured upto 24 hrs by LC-MS/MS analysis; assay type: ADME, organism-based; design: dose 10 mg/kg, time < 24 hrs, route iv; details: in vivo
in vitro [23] = details: dog, hepatocytes
Cytochrome P450 2C19 = Cytochrome P450 2C19 (Homo sapiens, UniProt P33261); assay: Time dependent inhibition of CYP2C19 in human liver microsomes at 10 uM preincubated for 30 mins followed by substrate addition and measured after 15 mins in presence of NADPH by LC-MS/MS analysis; assay type: ADME, Microsome
[24] = AUC (0 to t) in Beagle dog at 5 mg/kg, po administered as single dose measured upto 24 hrs by LC-MS/MS analysis; assay type: ADME, organism-based, Canis lupus familiaris; design: dose 5 mg/kg, time < 24 hrs, route po; details: in vivo
[25] = Cmax in Sprague-Dawley rat at 10 mg/kg, po administered as single dose measured upto 24 hrs by LC-MS/MS analysis; assay type: ADME, organism-based; design: time < 24 hrs, dose 10 mg/kg, route po; details: in vivo
[26] = Tmax in Beagle dog at 5 mg/kg, po administered as single dose measured upto 24 hrs by LC-MS/MS analysis; assay type: ADME, organism-based, Canis lupus familiaris; details: in vivo
[27] = AUC (0 to infinity) in Sprague-Dawley rat at 10 mg/kg, iv administered as single dose measured upto 24 hrs by LC-MS/MS analysis; assay type: ADME, organism-based; design: dose 10 mg/kg, time < 24 hrs, route iv; details: in vivo
Ketohexokinase [28] = target: T3, Ketohexokinase (Homo sapiens, UniProt P50053)
T3 sequence (P50053 whole entry): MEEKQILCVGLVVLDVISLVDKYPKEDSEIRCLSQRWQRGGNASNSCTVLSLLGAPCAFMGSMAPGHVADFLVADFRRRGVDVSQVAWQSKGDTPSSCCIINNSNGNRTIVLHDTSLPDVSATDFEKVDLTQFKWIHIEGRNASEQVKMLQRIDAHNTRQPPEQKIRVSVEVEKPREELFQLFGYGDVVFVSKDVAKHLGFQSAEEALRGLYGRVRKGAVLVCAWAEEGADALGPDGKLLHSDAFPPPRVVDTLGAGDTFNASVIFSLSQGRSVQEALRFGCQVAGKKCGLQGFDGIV

in vitro [29] = details: human, Caco-2
Ketohexokinase [30] = target: T3, Ketohexokinase; remark: listed apart in the source
[31] = Metabolic stability in rat hepatocyte assessed as parent compound remaining at 10 uM measured after 4 hrs by LC-MS/MS analysis; assay type: ADME, cell-based; details: hepatocytes, read-out: Stability
[32] = Volume of distribution at steady state in Sprague-Dawley rat at 10 mg/kg, iv administered as single dose measured upto 24 hrs by LC-MS/MS analysis; assay type: ADME, organism-based; details: in vivo, read-out: Vdss

T2 sequence (P11712 whole entry): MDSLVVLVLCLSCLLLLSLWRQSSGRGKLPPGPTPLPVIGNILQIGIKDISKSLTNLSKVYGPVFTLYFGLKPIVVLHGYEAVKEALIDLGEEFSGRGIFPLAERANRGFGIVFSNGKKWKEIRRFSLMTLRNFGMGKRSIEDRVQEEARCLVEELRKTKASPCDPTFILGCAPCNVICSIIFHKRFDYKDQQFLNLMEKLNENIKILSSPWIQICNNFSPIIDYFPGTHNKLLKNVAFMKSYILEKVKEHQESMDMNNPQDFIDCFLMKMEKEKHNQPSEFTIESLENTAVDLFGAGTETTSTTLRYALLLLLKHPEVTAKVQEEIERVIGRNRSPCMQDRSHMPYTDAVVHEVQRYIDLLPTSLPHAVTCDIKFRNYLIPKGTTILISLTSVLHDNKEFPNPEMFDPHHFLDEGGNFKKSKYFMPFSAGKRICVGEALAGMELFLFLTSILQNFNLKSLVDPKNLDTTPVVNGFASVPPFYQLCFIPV
Chain of Cytochrome P450 2C19 (P33261 whole entry): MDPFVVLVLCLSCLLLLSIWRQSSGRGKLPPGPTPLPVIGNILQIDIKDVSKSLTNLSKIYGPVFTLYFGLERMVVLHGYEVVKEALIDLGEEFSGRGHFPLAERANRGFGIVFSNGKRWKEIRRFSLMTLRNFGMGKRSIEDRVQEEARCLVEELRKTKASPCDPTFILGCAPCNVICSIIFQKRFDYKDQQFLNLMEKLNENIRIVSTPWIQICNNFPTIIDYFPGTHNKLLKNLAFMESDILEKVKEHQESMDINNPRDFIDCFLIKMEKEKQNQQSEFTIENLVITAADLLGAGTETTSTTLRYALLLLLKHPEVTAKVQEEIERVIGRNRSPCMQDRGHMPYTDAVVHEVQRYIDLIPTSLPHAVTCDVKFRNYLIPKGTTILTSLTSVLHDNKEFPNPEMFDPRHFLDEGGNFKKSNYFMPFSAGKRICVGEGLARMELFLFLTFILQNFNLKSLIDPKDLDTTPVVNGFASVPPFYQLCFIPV

Drug metabolism [1]: Metabolite_Notdetected
MRT last at 24 h [2]: 4.15 h
fraction unbound (in vitro [3]): 0.025
remaining at 4 h, 10 µM [4]: 95.8%
MRT last at 24 h [5]: 6.09 h
microsomal CLint at 2 h, 1 µM (in vitro [6]): 8 µL/min/mg
IC50 (Cytochrome P450 1A2): > 30 µM
IC50 (Cytochrome P450 2C9 [7]): > 30 µM
AUC [8]: 44400 ng·h/mL
solubility kinetic (physchem [9]): > 1000 µM
concentration at 24 h (in vivo [10]): 620 ng/g
Drug metabolism [11]: Metabolite_Notdetected
IC50 at 2 h (in vitro [12]): > 150 µM
hepatocyte CLint at 2 h, 1 µM (in vitro [13]): < 0.96 µL/min/1e6 cells
concentration at 24 h (in vivo [14]): 5080 ng/mL
Drug metabolism [15]: Metabolite_Notdetected
half-life [16]: 7.16 h
IC50 (Cytochrome P450 2C9 [17]): > 10 µM
logD (physchem [18]): 0.14
bioavailability [19]: 54.6%
clearance [20]: 3.06 mL/min/kg
AUCt [21]: 5440 ng·h/mL
AUCt [22]: 73000 ng·h/mL
hepatocyte CLint at 2 h, 1 µM (in vitro [23]): < 0.96 µL/min/1e6 cells
IC50 (Cytochrome P450 2C19): > 10 µM
AUCt [24]: 33400 ng·h/mL
Cmax [25]: 4900 ng/mL
Tmax [26]: 0.75 h
AUC [27]: 76200 ng·h/mL
IC50 (Ketohexokinase [28]): 0.0572 µM
efflux ratio (in vitro [29]): 7.45
IC50 (Ketohexokinase [30]): 0.0351 µM
remaining at 4 h, 10 µM [31]: 98.2%
Vd [32]: 0.89 L/kg
Structure (SMILES): C[C@H]1CCN1c1nc(N2CC[C@H](CCC(=O)O)C2)c2c(n1)C(F)(F)CC2
